Laboratory results as given in US7786131B2, “Pyrimido[5,4-d]pyrimidines derivatives as irreversible inhibitors of tyrosine kinases” (Warner-Lambert Company, priority 1996, dated 2010).
Read-outs that look alike come from different tables or passages of the source.

Assays:
[1] = target: T1, EGF receptor autophosphorylation in A431 cells (Homo sapiens, UniProt P00533); experiment: Irreversibility test: recovery of EGF receptor autophosphorylation after washout; format: cell-based; conditions: for remaining activity at 2 µM: A-431, A431 cells treated 2 hours with 2 μM, read-out: % of Control Autophosphorylation
T1 construct: A431 human epidermoid carcinoma cells were grown in 6-well plates; endogenous in cells; host or cells: A431 human epidermoid carcinoma cells
Experimental: (§1) Extracts were made by lysing the monolayers in 0.2 mL of boiling Laemlli buffer (2% sodium dodecyl sulfate, 5% beta-mercaptoethanol, 10% glycerol and 50 mM tris[hydroxymethyl]aminomethane (Tris), pH 6.8), and the lysates were heated to 100° C. for 5 minutes. Proteins in the lysate were separated by polyacrylamide gel electrophoresis and electrophoretically transferred to nitrocellulose. The membrane was washed once in 10 mM Tris, pH 7.2, 150 mM NaCl, 0.01% Azide (TNA), and blocked overnight in TNA containing 5% bovine serum albumin and 1% ovalbumin. The membrane was blotted for 2 hours with antiphosphotyrosine antibody (UBI, 1 μg/mL in blocking buffer) and then washed twice in TNA, once in TNA containing 0.05% Tween-20 detergent and 0.05% nonidet P-40 detergent and twice in TNA. […] Band intensities were determined with a Molecular Dynamics laser densitometer.
Duplicate sets of cells were treated with 2 μM of designated compound to be tested as an irreversible inhibitor for either 1 or 2 hours. One set of cells was then stimulated with 100 ng/mL of EGF for 5 minutes and extracts made as described under the western blotting procedure. The other set of cells were washed free of the compound with warmed serum-free media, incubated for 2 hours, washed again, incubated another 2 hours, washed again, and then incubated a further 4 hours. This set of cells was then stimulated with EGF and extracts made similar to the first set of cells.

[2] = system: NIH 3T3 fibroblast transfected with the h-EGF receptor; experiment: EGFR tumor xenograft in nude mice
Experimental: Female nude mice (NCr nu/nu, Taconic Farms) 18-20 g were implanted SC with tumor fragments (approximately 30 mg) in the region of the right axilla on Day 0. […] The vehicle was 6% dimethyl acetamide in 50 mM lactate buffer, pH 4.0Tumor volumes were recorded three times per week by measuring the length and width of the individual tumors and calculating the mass in milligrams according to the formula (a×b^2)/2, where a and b are the length and width of the tumor. Percent T/C (treated/control) was calculated based on the ratio of the median tumor volume of the treated tumors compared with the median tumor volume of the control tumors on specified measurement days.

[3] = target: T2, insulin receptor intracellular kinase domain (Homo sapiens, UniProt P06213); experiment: Tyrosine kinase assay, insulin receptor; format: biochemical
T2 construct: Assays using intracellular kinase domains of PDGF, FGF, and insulin receptors

[4] = target: T1, EGF receptor autophosphorylation in A431 cells; experiment: Autophosphorylation assay in A431 cells; format: cell-based; conditions: EGF-stimulated EGFR autophosphorylation in A431 cells
Experimental: as §1
Duplicate sets of cells were treated with a range of concentrations of the designated compound to be tested as an inhibitor for 15 minutes. The cells were then stimulated with 100 ng/mL of EGF for 5 minutes and extracts made as described under the Western Blotting Procedure.

[5] = system: A431 human epidermoid carcinoma cells; experiment: Growth inhibition assay in A431 cells; format: cell-based; conditions: A-431, 72 hours, cell count, read-out: IC50, inhibition of proliferation in A431 cells
Experimental: A431 human epidermoid carcinoma cells were obtained from the American Type Culture Collection, Rockville, Md. and maintained as monolayers in dMEM (Dulbecco's modified eagle medium)/F12, 50:50 (Gibco/BRL) containing 10% fetal bovine serum. […] The plates were incubated for 72 hours at 37° C. in a humidified atmosphere containing 5% CO2 in air. Cell growth was determined by cell count with a Coulter Model AM electronic cell counter (Coulter Electronics, Inc., Hialeah, Fla.).

c-src tyrosine kinase = c-src tyrosine kinase (UniProt P00523); experiment: Tyrosine kinase assay, c-src; format: biochemical
[6] = target: T3, FGF receptor intracellular kinase domain (FGF1) (Homo sapiens, UniProt P11362); experiment: Tyrosine kinase assay, FGF receptor; format: biochemical
T3 construct: Assays using intracellular kinase domains of PDGF, FGF, and insulin receptors

[7] = target: EGF receptor tyrosine kinase (Homo sapiens, UniProt P00533); experiment: Tyrosine kinase assay, isolated EGF receptor tyrosine kinase; format: biochemical
Chain of EGF receptor tyrosine kinase (P00533 25-1210): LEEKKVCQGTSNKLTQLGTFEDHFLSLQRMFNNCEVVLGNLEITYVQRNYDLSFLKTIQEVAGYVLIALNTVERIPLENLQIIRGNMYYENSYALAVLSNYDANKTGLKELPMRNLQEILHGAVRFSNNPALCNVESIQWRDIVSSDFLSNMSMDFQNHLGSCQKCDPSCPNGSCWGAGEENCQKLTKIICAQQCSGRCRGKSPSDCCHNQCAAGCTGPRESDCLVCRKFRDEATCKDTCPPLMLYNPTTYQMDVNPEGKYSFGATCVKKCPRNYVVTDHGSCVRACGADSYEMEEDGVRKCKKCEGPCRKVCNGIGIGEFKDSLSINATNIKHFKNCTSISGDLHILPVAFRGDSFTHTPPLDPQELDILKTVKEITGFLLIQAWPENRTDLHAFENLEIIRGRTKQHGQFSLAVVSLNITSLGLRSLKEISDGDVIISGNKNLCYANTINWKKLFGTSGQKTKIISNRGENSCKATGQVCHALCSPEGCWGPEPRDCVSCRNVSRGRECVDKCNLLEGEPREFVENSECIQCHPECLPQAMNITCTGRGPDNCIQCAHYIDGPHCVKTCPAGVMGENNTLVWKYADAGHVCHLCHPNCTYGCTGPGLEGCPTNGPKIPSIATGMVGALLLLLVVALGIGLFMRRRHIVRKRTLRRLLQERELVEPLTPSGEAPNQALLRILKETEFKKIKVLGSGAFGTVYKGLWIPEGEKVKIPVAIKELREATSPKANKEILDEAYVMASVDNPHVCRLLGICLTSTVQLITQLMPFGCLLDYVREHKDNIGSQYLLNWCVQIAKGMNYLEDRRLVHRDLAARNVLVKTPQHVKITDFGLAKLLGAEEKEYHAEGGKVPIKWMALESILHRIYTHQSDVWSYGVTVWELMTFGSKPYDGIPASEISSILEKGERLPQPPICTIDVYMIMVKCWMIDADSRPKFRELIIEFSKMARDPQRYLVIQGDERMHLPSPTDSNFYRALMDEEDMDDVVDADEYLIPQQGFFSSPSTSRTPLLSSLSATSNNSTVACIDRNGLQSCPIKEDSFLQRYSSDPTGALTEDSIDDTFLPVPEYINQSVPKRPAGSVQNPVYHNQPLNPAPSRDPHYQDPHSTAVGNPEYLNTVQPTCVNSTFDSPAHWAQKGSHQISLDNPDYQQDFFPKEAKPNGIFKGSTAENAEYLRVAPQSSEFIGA

T1 sequence (P00533 25-1210): as above
T3 sequence (P11362 478-767 limits assumed): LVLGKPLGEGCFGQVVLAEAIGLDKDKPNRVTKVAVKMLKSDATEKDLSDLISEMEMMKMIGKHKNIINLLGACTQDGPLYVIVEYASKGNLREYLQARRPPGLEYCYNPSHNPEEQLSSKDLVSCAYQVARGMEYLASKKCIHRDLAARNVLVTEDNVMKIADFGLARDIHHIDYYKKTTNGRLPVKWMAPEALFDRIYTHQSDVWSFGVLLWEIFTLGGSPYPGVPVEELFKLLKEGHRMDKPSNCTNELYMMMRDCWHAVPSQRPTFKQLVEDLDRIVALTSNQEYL
T2 sequence (P06213 1023-1298 limits assumed): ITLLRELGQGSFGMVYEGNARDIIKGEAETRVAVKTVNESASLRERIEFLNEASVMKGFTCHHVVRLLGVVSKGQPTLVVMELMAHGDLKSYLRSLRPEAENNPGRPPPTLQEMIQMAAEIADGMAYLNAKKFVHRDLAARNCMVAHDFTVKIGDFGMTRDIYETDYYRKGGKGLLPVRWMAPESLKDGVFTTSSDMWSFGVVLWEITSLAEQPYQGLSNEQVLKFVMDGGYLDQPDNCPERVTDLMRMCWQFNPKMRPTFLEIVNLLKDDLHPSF

For `C=CC(=O)Nc1ccc2c(Nc3cccc(Br)c3)ncnc2c1` [Example 3, N-[4-(3-Bromo-phenylamino)-quinazolin-7-yl]acrylamide], the “% Control After 2-Hour Incubation” value ([1]; A431 cells, 2 μM inhibitor, EGFR autophosphorylation) was 1%, the “% Control After 8 Hours in Drug-Free Media Incubation” value ([1]; A431 cells, 2 μM inhibitor, washed, 8 hours drug-free) was 13% and the “time required for return of 50% of the activity” value ([1]; A431 cells, 2 μM, drug-free media (Table 3)) was 21 h. The remaining activity at 2 µM ([1]; 0 hours in drug-free media) was 0%, the remaining activity at 2 µM ([1]; 4 hours in drug-free media) was 12% and the remaining activity at 2 µM ([1]; 8 hours in drug-free media) was 23%. For the same compound, the remaining activity at 2 µM ([1]; 23 hours in drug-free media) was 54%, the inhibition at 2 µM ([1]; A-431, A431 cells, 2 μM, end of 8 hours washoff, read-out: inhibition of the enzyme (kinase activity) after washoff) was 89% and the “% T/C” value ([2]; 3 mg/kg/injection, Day 7) was 115%. The “% T/C” value ([2]; 3 mg/kg/injection, Day 10) was 138%, the “% T/C” value ([2]; 3 mg/kg/injection, Day 12) was 113% and the “% T/C” value ([2]; 30 mg/kg/injection, Day 7) was 48%. For the same compound, the “% T/C” value ([2]; 30 mg/kg/injection, Day 10) was 66%, the “% T/C” value ([2]; 30 mg/kg/injection, Day 12) was 53% and the “% T/C” value ([2]; 100 mg/kg/injection, Day 7) was 57%. The “% T/C” value ([2]; 100 mg/kg/injection, Day 10) was 70%, the “% T/C” value ([2]; 100 mg/kg/injection, Day 12) was 57% and the “activity against tumor growth” value ([2]; 10 or 3 mg/kg/injection IP every 12 hours Days 3-7) was “No activity”. For the same compound, the growth delay ([2]; EGFR tumor, IP bid Days 1 through 13, 75 mg/kg) was 5 days, the activity ([2]; EGFR tumor, IP bid Days 1 through 13, 300 mg/kg) was “no activity” and the growth delay ([2]; EGFR tumor, IP bid Days 1 through 13, 190 and 120 mg/kg) was 1 days. The growth delay ([2]; EGFR tumor, IP bid Days 3 through 7, 30 mg/kg) was 2.5 days, the growth delay ([2]; EGFR tumor, IP bid Days 3 through 7, 100 mg/kg) was 4 days and the “weight loss, lethality, or clinical signs of toxicity” value ([2]; any dose level, IP every 12 hours Days 3-7) was “No weight loss, lethality, or clinical signs of toxicity”. For the same compound, the IC50 [3] was > 50000 nM, the IC50 [4] was 14 nM and the IC50 [5] was 300 ± 90 nM. The IC50 (c-src tyrosine kinase) was > 2500 nM, the IC50 [6] was > 50000 nM and the “specificity for the EGF receptor tyrosine kinase as opposed to other tyrosine kinase enzymes” value ([7]; Table 4) was “very high specificity”. The IC50 ([7]; Table 4, read-out: EGFR IC50) was 0.36 nM and the IC50 ([7]; isolated EGFR kinase, read-out: EGFR Tyrosine Kinase IC50) was 0.36 nM.
